What all share (type): biochemical
Assay [1] addresses T1, Polyporus pinsitus laccase (Trametes villosa, UniProt Q99044).
T1 construct: made in house
T1 sequence (Q99044 22-520): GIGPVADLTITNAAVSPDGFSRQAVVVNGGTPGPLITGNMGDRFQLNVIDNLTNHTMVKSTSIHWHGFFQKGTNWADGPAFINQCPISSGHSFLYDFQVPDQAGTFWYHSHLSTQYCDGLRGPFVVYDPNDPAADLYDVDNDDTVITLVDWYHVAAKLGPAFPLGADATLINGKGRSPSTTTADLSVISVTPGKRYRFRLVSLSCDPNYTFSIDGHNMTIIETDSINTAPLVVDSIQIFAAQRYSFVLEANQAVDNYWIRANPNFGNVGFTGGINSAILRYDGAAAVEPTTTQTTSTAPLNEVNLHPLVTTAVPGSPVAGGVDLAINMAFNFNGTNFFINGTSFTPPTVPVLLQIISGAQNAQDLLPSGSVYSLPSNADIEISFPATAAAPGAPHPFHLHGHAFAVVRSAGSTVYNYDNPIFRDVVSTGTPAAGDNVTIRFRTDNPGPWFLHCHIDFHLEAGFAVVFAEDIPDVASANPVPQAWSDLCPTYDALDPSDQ
Description: Bleaching of methyl orange with laccase and -NOH-CO- type mediators (microtitre plate, end-point absorbance). The protocol: Polyporus pinsitus laccase as described in Example 1.
(§1) Methyl orange (Merck, Germany)
50 μl 0.1 mg/ml methyl orange
125 μl 0.1 M Britton-Robinson buffer (see example 1)
(§2) 25 μl 2 mM mediator or water (as reference)
50 μl laccase dilution (1:400)
Methyl orange, buffer and mediator are mixed in a microtitre plate and the reaction is started by addition of laccase. Absorbance is measured at 450 nm after 15 min.
N-Hydroxyacetanilide and N-(4-cyanophenyl)-N-hydroxyacetamide were tested as mediators in bleaching of methyl orange with a laccase at pH 4-6. Low values represent the best performance.

Assay [2] has as its system Recombinant Coprinus cinereus laccase (rCcL). As to the kind of experiment: Bleaching of methyl orange using rCcL and NOH-type enhancing agents (initial bleaching rate). The conditions noted are these: for Initial changes per minute in A464 nm of methyl orange using rCcL: rCcL solution diluted 1:200, 0.2 mM mediator, 30° C., large negative numbers = best performance. The protocol:
(§3) Britton-Robinson buffer is composed of:
as §1
(§4) Reactions were started by addition of enzyme. Absorbance at 464 nm was followed for 3 minutes (readings every 5 seconds) on a Cobas Fara at 30° C. Initial bleaching rates were determined from the first linear part of the progress curves.
(§5) The N—OH compounds listed above were tested as laccase mediators in bleaching of methyl orange with three recombinant laccases (rPpL, rMtL and rCcL) at various pH values. Large negative numbers represent the best performance.

Assay [3] concerns the target T1, Polyporus pinsitus laccase. As to the kind of experiment: Bleaching of methyl orange using rPpL and NOH-type enhancing agents (initial bleaching rate). The settings on record: rPpL solution diluted 1:200, 0.2 mM mediator, 30° C., large negative numbers = best performance. The protocol: as §3, §1, §4, §5
Assay [4] concerns the target T1, Polyporus pinsitus laccase. Description: Bleaching of various dyes with laccase and N-Hydroxyacetanilide (microtitre plate, end-point absorbance). The conditions noted are these: + enzyme + mediator, pH 5, laccase dilution 1:400, low values = best performance. The method, then:
Polyporus pinsitus laccase as described in Example 1, except that the concentration is 1726 LACU/ml.
125 μl 0.1 M Britton-Robinson buffer, pH 5 (see example 1)
as §2
50 μl laccase dilution (1:400) or water (as reference)
Dye, buffer and mediator are mixed in a micro-titre plate and the reaction is started by addition of laccase. Absorbance is measured at 595 nm after 5 min.
N-Hydroxyacetanilide was used as mediator in bleaching of various dyes with a laccase. Low values represent the best performance.

Assay [5] relates to Recombinant Myceliophthora thermophila laccase (rMtL). As to the kind of experiment: Bleaching of methyl orange using rMtL and NOH-type enhancing agents (initial bleaching rate). The settings on record: rMtL solution diluted 1:300, 0.2 mM mediator, 30° C., large negative numbers = best performance. The method, then:
as §3, §1, §4, §5

Setting [6] is: pH 4, laccase dilution 1:400, low values = best performance.
[7] abbreviates: pH 5, laccase dilution 1:400, low values = best performance.
Setting [8] is: pH 6, laccase dilution 1:400, low values = best performance.

For the compound `CC(=O)N(O)c1ccc(C#N)cc1` [N-(4-cyanophenyl)-N-hydroxyacetamide], the “bleaching a dye in solution, result in words” value in assay [1] (laccase, pH 4-6) is reported as “as effective as N-Hydroxyacetanilide”. Further, the “Absorbance measured at 450 nm after 15 minutes” value in assay [1] (setting [6]) was determined as 0.065; in assay [1] (setting [7]), 0.055; in assay [1] (setting [8]), 0.083.
As for `CC(=O)N(O)c1ccccc1` [N-hydroxyacetanilide, N-Hydroxyacetanilide], the “Initial changes per minute in A464 nm of methyl orange using rCcL” value (from here on “Initial changes per minute … using rCcL”) in assay [2] (pH 4) was −0.521 per minute; in assay [2] (pH 5), −0.719 per minute; in assay [2] (pH 6), −0.674 per minute; in assay [2] (pH 7), −0.498 per minute; in assay [2] (pH 8) it was −0.136 per minute. Moreover, in assay [2] (summary of Tables 1-3 (rCcL, rMtL and rPpL, various pH)), the “bleaching of methyl orange, result in words” value was “surprisingly good compared with the other N—OH types enhancing agents”. Also, the “Initial changes per minute in A464 nm of methyl orange using rPpL” value (from here on “Initial changes per minute … using rPpL”) in assay [3] (pH 4) is −4.743 per minute; in assay [3] (pH 5) it was −6.528 per minute; in assay [3] (pH 6), −1.837 per minute; in assay [3] (pH 7) it was −0.055 per minute. For the same compound, the “Absorbance measured at 595 nm after 5 minutes” value in assay [4] (dye Acid blue 45) was determined as 0.123; in assay [4] (dye Acid blue 113) it was 0.062; in assay [4] (dye CSB), 0.207; in assay [4] (dye Cibacron Marine) it was 0.235. The entries for the “Absorbance measured at 450 nm after 15 minutes” value in assay [1] (setting [6]), in assay [1] (setting [7]) and in assay [1] (setting [8]) were 0.077, 0.068 and 0.087, respectively. The “Initial changes per minute in A464 nm of methyl orange using rMtL” value (from here on “Initial changes per minute … using rMtL”) in assay [5] (pH 4) is given as −1.306 per minute; in assay [5] (pH 5), −1.847 per minute; in assay [5] (pH 6), −0.630 per minute; in assay [5] (pH 7), −0.101 per minute.
Consider `CS(=O)(=O)c1ccc2ccn(OC(=O)c3ccccc3)c2c1` [PFC-202, Benzoic acid[6-(methylsulphonyl)indol-1-yl]ester], for which the “Initial changes per minute … using rCcL” value in assay [2] (pH 4) is reported as −0.005 per minute; in assay [2] (pH 5), −0.010 per minute; in assay [2] (pH 6) it was −0.016 per minute; in assay [2] (pH 7) it was 0.000 per minute; in assay [2] (pH 8), 0.011 per minute. In addition, the “Initial changes per minute … using rPpL” value in assay [3] (pH 4) is given as −0.047 per minute; in assay [3] (pH 5), −0.035 per minute; in assay [3] (pH 6) it was −0.001 per minute; in assay [3] (pH 7) it was 0.000 per minute. Further, the “Initial changes per minute … using rMtL” value was −0.020 per minute in assay [5] (pH 4), −0.017 per minute in assay [5] (pH 5), 0.001 per minute in assay [5] (pH 6) and 0.005 per minute in assay [5] (pH 7).
As to `[O-][n+]1cccc2ccccc21` [Quinoline-N-oxide], the “Initial changes per minute … using rCcL” value was −0.004 per minute in assay [2] (pH 4); −0.006 per minute in assay [2] (pH 5); −0.010 per minute in assay [2] (pH 6); −0.008 per minute in assay [2] (pH 7); −0.004 per minute in assay [2] (pH 8). Also, the “Initial changes per minute … using rPpL” value in assay [3] (pH 4) was −0.074 per minute; in assay [3] (pH 5), −0.041 per minute; in assay [3] (pH 6), −0.016 per minute; in assay [3] (pH 7), −0.002 per minute. For the same compound, the “Initial changes per minute … using rMtL” value is on record as −0.016 per minute in assay [5] (pH 4), −0.011 per minute in assay [5] (pH 5), −0.002 per minute in assay [5] (pH 6) and 0.000 per minute in assay [5] (pH 7).
Take `ON=C(c1ccccn1)c1ccccn1` [di-2-pyridylketone oxime]: the “Initial changes per minute … using rCcL” value in assay [2] (pH 4) is −0.004 per minute; in assay [2] (pH 5), −0.006 per minute; in assay [2] (pH 6) it was −0.008 per minute; in assay [2] (pH 7) it was −0.006 per minute; in assay [2] (pH 8) it was −0.001 per minute. Moreover, the “Initial changes per minute … using rPpL” value was −0.124 per minute in assay [3] (pH 4), −0.107 per minute in assay [3] (pH 5), −0.053 per minute in assay [3] (pH 6) and −0.005 per minute in assay [3] (pH 7). In addition, the “Initial changes per minute … using rMtL” value in assay [5] (pH 4) is listed as −0.026 per minute; in assay [5] (pH 5), −0.010 per minute; in assay [5] (pH 6), −0.001 per minute; in assay [5] (pH 7), 0.001 per minute.
On to `CCOc1ccc(N=[N+]([O-])c2ccc(OCC)cc2)cc1` [p,p′-azoxydiphenetole, p,p′-Azoxydiphenetole], for which the “Initial changes per minute … using rCcL” value in assay [2] (pH 4) is on record as 0.116 per minute; in assay [2] (pH 5), 0.196 per minute; in assay [2] (pH 6), 0.002 per minute; in assay [2] (pH 7), 0.008 per minute; in assay [2] (pH 8) it was 0.019 per minute. In addition, the “Initial changes per minute … using rPpL” value was 0.121 per minute in assay [3] (pH 4), 0.013 per minute in assay [3] (pH 5), 0.017 per minute in assay [3] (pH 6) and 0.018 per minute in assay [3] (pH 7). For the same compound, the “Initial changes per minute … using rMtL” value in assay [5] (pH 4) came to 0.019 per minute; in assay [5] (pH 5) it was 0.086 per minute; in assay [5] (pH 6), 0.012 per minute; in assay [5] (pH 7) it was 0.020 per minute.

For the origin of these results see US6399561B1, “Methods and compositions for bleaching a dye in solution” (Novozymes A/S, priority 1998, dated 2002).
